The values that follow come from US9751919B2, “Antimicrobial compositions comprising a hyaluronic acid binding peptide and a β-lactam antibiotic” (priority 2012, dated 2017).

The test system of one test is Gram-negative bacilli. The test can be described thus: Checkerboard assay, panel statement. Format: cell-based. As to conditions: with gentamicin, levofloxacin, piperacillin-tazobactam, meropenem and colistin; all Gram-negative bacilli tested. On the procedure:
(§1) The checkerboard assays were carried out as described by Eliopoulos and Moellering (Chapter 9) in Antibiotic in Laboratory Medicine, Lorian Ed. 1996 as well as Bonapace et al. Diagnostic Microbiology and Infectious Diseases 2002; 44:363-366 and Bonapace et al. Diagnostic Microbiology and Infectious Diseases 2000; 38:43-50. In brief, checkerboard assays were performed in 96 well microtitre trays using an 8-by-8 well configuration. […] 96-well custom designed microtitre plates contained 100 ul/well of cation adjusted Mueller-Hinton broth (eg. for Enterobacteriaceae) with or without lysed horse blood (2-5% V/V) [eg. for S. pneumoniae] and were inoculated to achieve a final concentration of approximately 5×10^5 CFU/ml and incubated in ambient air for 24 hours prior to reading. Colony counts were performed periodically to confirm inocula. Quality control was performed every two weeks using a variety of ATCC QC organisms including; S. pneumoniae 49619, S. aureus 29213, E. faecalis 29212, E. coli 25922 and P. aeruginosa 27853. For all antimicrobials as well as PEP35, CLSI criteria was used.
(§2) The fractional inhibitory concentration index (FIC index) was used to interpret synergy, antagonism or additivity/indifference. FIC index=FIC of drug A+FIC of drug B where:
(§3) The FIC of drug A and drug B is calculated as follows, FIC drug A=MIC of drug A in combination/MIC of drug A alone and FIC of drug B=MIC of drug B in combination/MIC of drug B alone. Synergy is defined as FIC index ≦0.5, additivity/indifference FIC >0.5-4 and antagonism FIC index >4.
(§4) Antimicrobials used included PEP35, cefazolin, ceftriaxone, vancomycin, linezolid, tigecycline and daptomycin versus Gram-positive cocci and PEP35, gentamicin, levofloxacin, piperacillin/tazobactam, meropenem and colistin (Polymyxin E) versus Gram-negative bacilli. These agents were obtained as laboratory grade powders from their respective manufacturers. Stock solutions were prepared and dilutions made as described by the Clinical Laboratory Standards Institute (2005 CLSI).
(§5) Organisms included Gram-positive cocci (2 strains of each): Methicillin-susceptible Staphylococcus aureus (MSSA), community-associated (CA) and healthcare-associated (HA) methicillin-resistant Staphylococcus aureus (MRSA), vancomycin-intermediate Staphylococcus aureus (VISA), vancomycin-resistant Staphylococcus aureus (VRSA), methicillin-resistant Staphylococcus epidermidis (MRSE), Streptococcus pyogenes, Streptococcus agalactiae, Streptococcus pneumoniae, Enterococcus faecalis, Enterococcus faecium and vancomycin-resistant enterococcus (VRE). […] MIC testing, following two subcultures from frozen stock were determined by the CLSI 2005 approved broth microdilution method.

The next test concerns Gram-positive cocci. Description: Checkerboard assay, panel statement. Format: cell-based. On the procedure: as §1, §2, §3, §4, §5

Entries after “also recorded” stand apart in the source; their conditions may differ.

On to “LKQKIKHVVKLKVVVKLRSQLVKRKQN (listed as Mus sp.) [PEP35]”, for which the “interaction (in words)” value is “did not demonstrate antagonism or synergy; also recorded: additive” with Gram-negative bacilli; “synergistic” with Gram-positive cocci (with cefazolin and ceftriaxone, CA-MRSA and HA-MRSA); “additive” with Gram-positive cocci (with the six antibiotics, all streptococci, staphylococci and enterococci except CA-MRSA and HA-MRSA). Besides, the “antagonism (in words)” value in the test on Gram-positive cocci (with cefazolin, ceftriaxone, daptomycin, linezolid, tigecycline and vancomycin, any streptococci, staphylococci and enterococci tested) is “did not demonstrate antagonism”.
